Values of other authors in patent US10073089B2 (priority 2011, dated 2018).

Tested on: torpedo electrocyte membranes
Conditions: read-out: Sensitivity (concentration in nM)

Substance | IC50 [nM]
13-desmethyl spirolide C [13-SPX C] | 108
gymnodimine A [GYM A] | 391
